In brackets after ≈: the same amount, converted by molar mass. Read-outs that look alike come from different tables or passages of the source.
Columns and labels:
Type in all cases: cell-based
[1] = system: Diplococcus pneumoniae Type III; assay: MIC by broth dilution (Table 8); settings: Streptococcus pneumoniae, 20 h; Diplococcus pneumoniae Type III; 10% horse blood supplemented into the medium; read-out: Minimum inhibitory concentration
Description: (§1) The MIC values of antibiotic PS-5 sodium salt were determined on various pathogenic microorganisms including resistant strains by the broth dilution method utilizing the BRAIN HEART INFUSION BROTH `Eiken` (EIKEN CHEMICAL CO., LTD.).
(§2) The antibiotic PS-5 sodium salt was dissolved in BRAIN HEART INFUSION BROTH `Eiken` (EIKEN CHEMICAL CO., LTD.) (pH 7.0) at concentration in the range of 5-50 μg/ml, from which appropriate dilution series were made in the same liquid medium. The microorganisms listed in Table 8 were cultivated for 18 hours in BRAIN HEART INFUSION BROTH `Eiken` at 28° C. and inoculated into the said dilution series of antibiotic PS-5 at a final inoculum size of 1×10^5 cells/ml. The cultures were allowed to stand at 35° C. for 20 hours, and then the growth of the microorganisms was read at each dilution of antibiotic PS-5. The minimum inhibitory concentration (MIC) represents the smallest concentration of the antibiotic PS-5 (sodium salt) where no propagation of the relevant microorganism was visually confirmed. As the controls, two known beta-lactam antibiotics, cephaloridine and cefoxitin were dissolved in brain heart infustion broth at pH 7.0 at concentrations ranging from 1 μg/ml to 100 μ g/ml and then diluted to make several dilution series in the above mentioned liquid medium. These samples were treated as described above for the MIC determinations.

[2] = system: Staphylococcus aureus Bx-1633; assay: MIC by broth dilution (Table 8); settings: BX1633, 20 h; Staphylococcus aureus Bx-1633; PS-5 as sodium salt; read-out: Minimum inhibitory concentration
Description: as §1, §2

[3] = system: Staphylococcus aureus Smith; assay: MIC by broth dilution (Table 8); settings: 20 h; Staphylococcus aureus Smith; PS-5 as sodium salt; read-out: Minimum inhibitory concentration
Description: as §1, §2

[4] = system: Streptococcus pyogenes NY-5; assay: MIC by broth dilution (Table 8); settings: NY5, 20 h; Streptococcus pyogenes NY-5; 10% horse blood supplemented into the medium; read-out: Minimum inhibitory concentration
Description: as §1, §2

[5] = system: Bacillus subtilis ATCC 6633; assay: MIC by broth dilution (Table 8); settings: ATCC6633, 20 h; Bacillus subtilis ATCC 6633; read-out: Minimum inhibitory concentration
Description: as §1, §2

[6] = system: Staphylococcus aureus EDA 209 P; assay: MIC by broth dilution (Table 8); settings: EDA209P, 20 h; Staphylococcus aureus EDA 209 P; PS-5 as sodium salt; read-out: Minimum inhibitory concentration
Description: as §1, §2

[7] = system: Alcaligenes faecalis B-326; assay: MIC by broth dilution (Table 8); settings: B326, 20 h; Alcaligenes faecalis B-326; read-out: Minimum inhibitory concentration
Description: as §1
as §2, with “determinations. In addition to the MIC values of antibiotic PS-5, those of cephaloridine and cefoxitin are included for reference.” for “determinations.”

[8] = system: Serratia marcescens S-18; assay: MIC by broth dilution (Table 8); settings: S18, 20 h, betalactamase producer, read-out: Minimum inhibitory concentration
Description: as §1
as §2, with “determinations. In addition to the MIC values of antibiotic PS-5, those of cephaloridine and cefoxitin are included for reference.” for “determinations.”

[9] = system: Escherichia coli K 12; assay: MIC by broth dilution (Table 8); settings: K12, 20 h; Escherichia coli K 12; read-out: Minimum inhibitory concentration
Description: as §1
as §2, with “determinations. In addition to the MIC values of antibiotic PS-5, those of cephaloridine and cefoxitin are included for reference.” for “determinations.”

[10] = system: Klebsiella pneumoniae K-2; assay: MIC by broth dilution (Table 8); settings: K2, 20 h, betalactamase producer, read-out: Minimum inhibitory concentration
Description: as §1
as §2, with “determinations. In addition to the MIC values of antibiotic PS-5, those of cephaloridine and cefoxitin are included for reference.” for “determinations.”

[11] = system: Proteus mirabilis P-6; assay: MIC by broth dilution (Table 8); settings: P6, 20 h, resistant to kanamycin, gentamicin and tobramycin, read-out: Minimum inhibitory concentration
Description: as §1
as §2, with “determinations. In addition to the MIC values of antibiotic PS-5, those of cephaloridine and cefoxitin are included for reference.” for “determinations.”

[12] = system: Citrobacter freundii E-9; assay: MIC by broth dilution (Table 8); settings: E9, 20 h; Citrobacter freundii E-9; betalactamase producer; read-out: Minimum inhibitory concentration
Description: as §1
as §2, with “determinations. In addition to the MIC values of antibiotic PS-5, those of cephaloridine and cefoxitin are included for reference.” for “determinations.”

[13] = system: Proteus rettgeri P-7; assay: MIC by broth dilution (Table 8); settings: Providencia rettgeri, P7, 20 h, resistant to gentamicin and tobramycin, read-out: Minimum inhibitory concentration
Description: as §1
as §2, with “determinations. In addition to the MIC values of antibiotic PS-5, those of cephaloridine and cefoxitin are included for reference.” for “determinations.”

[14] = system: Proteus vulgaris P-5; assay: MIC by broth dilution (Table 8); settings: P5, 20 h, betalactamase producer, read-out: Minimum inhibitory concentration
Description: as §1
as §2, with “determinations. In addition to the MIC values of antibiotic PS-5, those of cephaloridine and cefoxitin are included for reference.” for “determinations.”

[15] = system: Proteus sp. P-22; assay: MIC by broth dilution (Table 8); settings: 20 h; Proteus sp. P-22; read-out: Minimum inhibitory concentration
Description: as §1
as §2, with “determinations. In addition to the MIC values of antibiotic PS-5, those of cephaloridine and cefoxitin are included for reference.” for “determinations.”

[16] = system: Enterobacter cloacae E-16; assay: MIC by broth dilution (Table 8); settings: E16, 20 h, betalactamase producer, read-out: Minimum inhibitory concentration
Description: as §1
as §2, with “determinations. In addition to the MIC values of antibiotic PS-5, those of cephaloridine and cefoxitin are included for reference.” for “determinations.”

[17] = system: Enterobacter sp. E-8; assay: MIC by broth dilution (Table 8); settings: SP.E8, 20 h; Enterobacter sp. E-8; betalactamase producer; read-out: Minimum inhibitory concentration
Description: as §1
as §2, with “determinations. In addition to the MIC values of antibiotic PS-5, those of cephaloridine and cefoxitin are included for reference.” for “determinations.”

[18] = system: Enterobacter aerogenes E-19; assay: MIC by broth dilution (Table 8); settings: Klebsiella aerogenes, E19, 20 h, betalactamase producer, read-out: Minimum inhibitory concentration
Description: as §1
as §2, with “determinations. In addition to the MIC values of antibiotic PS-5, those of cephaloridine and cefoxitin are included for reference.” for “determinations.”

[19] = system: Providencia sp. P-8; assay: MIC by broth dilution (Table 8); settings: SP.P8, 20 h, resistant to kanamycin, gentamicin and tobramycin, read-out: Minimum inhibitory concentration
Description: as §1
as §2, with “determinations. In addition to the MIC values of antibiotic PS-5, those of cephaloridine and cefoxitin are included for reference.” for “determinations.”

[20] = system: Staphylococcus aureus Russell; assay: MIC by broth dilution (Table 8); settings: 20 h; Staphylococcus aureus Russell; PS-5 as sodium salt; read-out: Minimum inhibitory concentration
Description: as §1
as §2, with “determinations. In addition to the MIC values of antibiotic PS-5, those of cephaloridine and cefoxitin are included for reference.” for “determinations.”

[21] = system: Proteus vulgaris P-5; assay: Potentiation disc assay with cephaloridine (Table 10); settings: for Potentiation of the antimicrobial activity of cephaloridine: disc assay, Table 10; for Inhibition zone With CER: 50 μg/ml cephaloridine in agar; for zone of inhibition at 625 µg/mL / zone of inhibition at 2500 µg/mL / zone of inhibition at 10000 µg/mL: P5, 18 h, read-out: Inhibition zone Without CER
Description: (A) Ten milliliters of molten nutrient agar containing 50 μg/ml of penicillin G or cephaloridine, 0.8% of Kyokuto Nutrient Broth Powder and 1.0% of Difco Bacto-Agar (pH 7.0) were seeded with the beta-lactam-resistant, beta-lactamase-producing microorganisms indicated in Tables 9 and 10, and poured in a 9-cm Petri dish to provide the bio-assay agar plate. On this assay plate, 8-mm pulp discs containing 25 μl each of antibiotic PS-5 solutions at the indicated concentrations were placed and incubated at 35° C. for 18 hours before reading the inhibition zones. The control assay plate was similarly prepared without penicillin G nor cephaloridine. As reference antibiotics, penicillin G, ampicillin, oxacillin and cefazolin were disc-assayed under the same conditions.

[22] = Proteus vulgaris P-5, reference antibiotic 625 μg/ml
[23] = Proteus vulgaris P-5, reference antibiotic 2,500 μg/ml
[24] = Proteus vulgaris P-5, reference antibiotic 10,000 μg/ml

With CO[C@@]1(NC(=O)Cc2cccs2)C(=O)N2C(C(=O)O)=C(COC(N)=O)CS[C@@H]21 [Cefoxitin, cefoxitin] the MIC [1] was 1.25 µg/mL (≈ 2.92 µM), the MIC [2] was 1.25 µg/mL and the MIC [3] was 2.5 µg/mL. For the same compound, the MIC [4] was 0.63 µg/mL (≈ 1.47 µM), the MIC [5] was 1.25 µg/mL (≈ 2.92 µM) and the MIC [6] was 1.25 µg/mL. The MIC [7] was 1.56 µg/mL (≈ 3.65 µM), the MIC [8] was 50 µg/mL (≈ 117 µM) and the MIC [9] was 2.5 µg/mL (≈ 5.85 µM). It also gave an MIC [10] of 6.25 µg/mL (≈ 14.6 µM), an MIC [11] of 12.5 µg/mL (≈ 29.2 µM) and an MIC [12] of over 100 µg/mL. For the same compound, the MIC [13] was 6.25 µg/mL (≈ 14.6 µM), the MIC [14] was 12.5 µg/mL (≈ 29.2 µM) and the MIC [15] was 12.5 µg/mL (≈ 29.2 µM). It also gave an MIC [16] of over 100 µg/mL, an MIC [17] of 12.5 µg/mL (≈ 29.2 µM) and an MIC [18] of over 100 µg/mL. It also gave an MIC [19] of 25 µg/mL (≈ 58.5 µM) and an MIC [20] of 2.5 µg/mL.

With Cc1onc(-c2ccccc2)c1C(=O)N[C@@H]1C(=O)N2[C@@H]1SC(C)(C)[C@@H]2C(=O)O [Oxacillin, oxacillin] the “Potentiation of the antimicrobial activity of cephaloridine” value (“Potentiation” for short) ([21]; Proteus vulgaris P-5) was “could not increase the antimicrobial activity of cephaloridine”, the “Inhibition zone With CER” value [21, 22] was 0 mm and the “Inhibition zone With CER” value [21, 23] was 0 mm. For the same compound, the “Inhibition zone With CER” value [21, 24] was 0 mm, the zone of inhibition at 625 µg/mL ([21]; Proteus vulgaris) was 0 mm and the zone of inhibition at 2500 µg/mL ([21]; Proteus vulgaris) was 0 mm. The zone of inhibition at 10000 µg/mL ([21]; Proteus vulgaris) was 0 mm.

Work on Cc1nnc(SCC2=C(C(=O)O)N3C(=O)[C@@H](NC(=O)Cn4cnnn4)[C@H]3SC2)s1 [Cefazolin, cefazolin] yielded a zone of inhibition at 625 µg/mL [21, 22] of 0 mm, a zone of inhibition at 2500 µg/mL [21, 23] of 0 mm and a zone of inhibition at 10000 µg/mL [21, 24] of 14.6 mm. The “Potentiation” value ([21]; Proteus vulgaris P-5) was “could not increase the antimicrobial activity of cephaloridine”, the “Inhibition zone With CER” value [21, 22] was 0 mm and the “Inhibition zone With CER” value [21, 23] was 0 mm. The “Inhibition zone With CER” value [21, 24] was 12.0 mm.

In the case of CC1(C)S[C@@H]2[C@H](NC(=O)Cc3ccccc3)C(=O)N2[C@H]1C(=O)O [Penicillin G, penicillin G], the “Potentiation” value ([21]; Proteus vulgaris P-5) is reported as “could not increase the antimicrobial activity of cephaloridine”, the “Inhibition zone With CER” value [21, 22] is reported as 0 mm and the “Inhibition zone With CER” value [21, 23] is reported as 0 mm. For the same compound, the “Inhibition zone With CER” value [21, 24] was 14.5 mm, the zone of inhibition at 625 µg/mL ([21]; Proteus vulgaris) was 0 mm and the zone of inhibition at 2500 µg/mL ([21]; Proteus vulgaris) was 0 mm. For the same compound, the zone of inhibition at 10000 µg/mL ([21]; Proteus vulgaris) was 14.9 mm.
